Counter-ions that a name gives are not always drawn.
Each compound was assayed against T1, human A3AR (Homo sapiens, UniProt P0DMS8) (assay: LOPAC library primary screen: single concentration (10 μM) inhibition of 25 nM CA200645 binding, PHERAstar FS). Details: not given.
T1 construct: expressed in transfected cells
T1 sequence (P0DMS8 1-318): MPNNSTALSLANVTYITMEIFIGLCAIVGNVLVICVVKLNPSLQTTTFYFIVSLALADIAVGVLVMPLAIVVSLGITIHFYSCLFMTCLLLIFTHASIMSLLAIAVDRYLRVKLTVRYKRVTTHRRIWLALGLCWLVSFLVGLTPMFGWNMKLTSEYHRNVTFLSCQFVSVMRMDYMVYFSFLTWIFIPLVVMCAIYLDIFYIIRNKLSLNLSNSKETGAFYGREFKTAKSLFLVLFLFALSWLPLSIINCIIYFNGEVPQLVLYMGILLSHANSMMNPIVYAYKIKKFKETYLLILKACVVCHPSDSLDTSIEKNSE

SMILES | % 25 nM CA200645 binding [%] | % Total CA200645 binding [%] | hit in LOPAC primary screen (inhibited the binding of CA200645 by >40%)
Br.Br.CN(C)CCCc1cc(C(=O)Nc2ccc(-c3ccncc3)cc2)ccc1O [GR 55562 dihydrobromide] | 92.8 ± 13.3 | – | –
CC(C)N(CCC(C(N)=O)(c1ccccc1)c1ccccn1)C(C)C (stereo not shown) [Disopyramide] | 78.9 ± 27.0 | – | –
NS(=O)(=O)c1cccc2c1c([N+](=O)[O-])cc1nc([O-])c([O-])nc12.[Na+].[Na+] [NBQX disodium] | 94.5 ± 3.8 | – | –
N[C@@H](CCCC(=O)O)C(=O)O [L-2-aminoadipic acid] | 101.5 ± 9.7 | – | –
Oc1ccc(C2CNCCc3c2cc(O)c(O)c3Cl)cc1 (stereo not shown) [Fenoldopam bromide] | 90.6 ± 5.5 | – | –
CC(C)(C=O)Cc1cc(C(C)(C)C)c(O)c(C(C)(C)C)c1 [CGP-13501] | 97.4 ± 7.1 | – | –
Cl.Cl.Oc1ccc2c3c1O[C@H]1c4[nH]c5c(c4C[C@@]4(O)[C@@H](C2)N(CC2CC2)CC[C@]314)C[C@@]1(O)[C@H]2Cc3ccc(O)c4c3[C@@]1(CCN2CC1CC1)[C@H]5O4 [nor-Binaltorphimine dihydrochloride] | 96.9 ± 14.7 | – | –
O=C(O)Cc1ccccc1Nc1c(Cl)cccc1Cl [Diclofenac sodium] | 100.0 ± 12.4 | – | –
CN1C2CCCC1CC(NC(=O)c1nn(C)c3ccccc13)C2 (stereo not shown) [Granisetron hydrochloride] | 100.4 ± 14.5 | – | –
CCCn1c(=O)c2[nH]c(-c3ccc(S(=O)(=O)O)cc3)nc2n(CCC)c1=O [1,3-dipropyl-8-p-sulfophenylxanthine, reference compound] | 42.3 ± 4.8 | 42.3 ± 4.8 | identified
CC(C)NNC(=O)c1ccncc1.O=P(O)(O)O [Iproniazid phosphate] | 103.0 ± 5.6 | – | –
N.N.N.N.N.N.N.N.N.N.N.N.N.N.[Cl-].[Cl-].[Cl-].[Cl-].[Cl-].[Cl-].[O-2].[O-2].[Ru+3].[Ru+3].[Ru+4] [Ruthenium red] | 95.4 ± 2.3 | – | –
Cc1cccc(-c2[nH]c(C(C)(C)C)nc2-c2ccc3nccnc3c2)n1 [SB-525334] | 76.3 ± 9.5 | – | –
COC(=O)Nc1nc2ccc(C(=O)c3cccs3)cc2[nH]1 [Nocodazole] | 79.0 ± 5.7 | – | –
C#CCN[C@H](C)Cc1ccccc1.Cl [R-(-)-Desmethyldeprenyl hydrochloride] | 101.0 ± 11.7 | – | –
CC(=O)NBr [N-Bromoacetamide] | 97.9 ± 5.0 | – | –
O=C1NCC2(CCN(CCc3ccccc3)CC2)O1 [Fenspiride hydrochloride] | 81.2 ± 5.0 | – | –
CCn1cnc2c(Nc3cccc(Cl)c3)nc(N[C@@H]3CCCC[C@@H]3N)nc21.Cl [CGP-74514A hydrochloride] | 94.1 ± 9.9 | – | –
CNCC[C@@H](Oc1ccccc1C)c1ccccc1 [Tomoxetine] | 97.5 ± 8.3 | – | –
CC(C)C[C@H]1C(=O)N2CCC[C@H]2[C@]2(O)O[C@](NC(=O)[C@@H]3C=C4c5cccc6[nH]c(Br)c(c56)C[C@H]4N(C)C3)(C(C)C)C(=O)N12.CS(=O)(=O)O [(+)-Bromocriptine methanesulfonate] | 60.6 ± 9.2 | – | –

SMILES | % 25 nM CA200645 binding [%] | % Total CA200645 binding [%] | hit in LOPAC primary screen (inhibited the binding of CA200645 by >40%)
CC(C)(C)c1o[nH]c(=O)c1CC(N)C(=O)O (stereo not shown) [ATPA] | 96.6 ± 6.2 | – | –
Nc1nc2[nH]c(=O)cnc2c(=O)[nH]1 [Isoxanthopterin] | 94.7 ± 15.0 | – | –
COc1cc(C(O)CO)ccc1OS(=O)(=O)[O-].[K+] (stereo not shown) [MHPG sulfate potassium] | 102.8 ± 6.8 | – | –
O=[N+]([O-])c1cccc2c(Br)n[nH]c12 [3-Bromo-7-nitroindazole] | 81.2 ± 6.7 | – | –
c1ccc(C2CN3CCSC3=N2)cc1 (stereo not shown) [Tetramisole hydrochloride] | 95.5 ± 22.8 | – | –
CCOC(=O)C1=C(C)NC(C)=C(C(=O)OC)C1c1cccc(Cl)c1Cl (stereo not shown) [Felodipine] | 79.1 ± 13.7 | – | –
CC(C)(C)NCC(O)c1ccc(O)c(CO)c1.CC(C)(C)NCC(O)c1ccc(O)c(CO)c1.O=S(=O)(O)O (stereo not shown) [Albuterol hemisulfate] | 97.4 ± 12.0 | – | –
N[C@@H](Cc1ccc(O)c(I)c1)C(=O)O [3-Iodo-L-tyrosine] | 96.8 ± 8.8 | – | –
CC[C@@H]1Cc2cc(O)ccc2C2=C1c1ccc(O)cc1C[C@H]2CC | 85.9 ± 6.0 | – | –
O=c1ccn([C@@H]2O[C@H](COP(=O)([O-])OP(=O)([O-])O)[C@@H](O)[C@H]2O)c(=O)[nH]1.[Na+].[Na+] [Uridine 5'-diphosphate sodium] | 100.6 ± 5.7 | – | –
O=c1cc(-c2ccccc2F)[nH]c2cc3c(cc12)OCO3 [CHM-1 hydrate] | 97.3 ± 5.3 | – | –
Cc1nc(N=Nc2cc(S(=O)(=O)[O-])c3cc([N+](=O)[O-])cc(S(=O)(=O)[O-])c3c2)c(COP(=O)([O-])[O-])c(C=O)c1O.[Na+].[Na+].[Na+].[Na+] [PPNDS tetrasodium] | 100.4 ± 12.5 | – | –
CC(C)=CCOc1c2occc2cc2ccc(=O)oc12 [Imperatorin] | 47.6 ± 2.3 | – | –
Cc1cn([C@H]2C=C[C@@H](CO)O2)c(=O)[nH]c1=O [2',3'-didehydro-3'-deoxythymidine] | 82.1 ± 11.9 | – | –
C[N+](C)(C)CCCCCCCCCC[N+](C)(C)C.[Br-].[Br-] [Decamethonium dibromide] | 106.4 ± 21.3 | – | –
C[C@@H](O)[C@H]1C(=O)N2C(C(=O)O)=C(SCCN=CN)C[C@H]12 [Imipenem monohydrate] | 96.8 ± 2.2 | – | –
CCOC(=O)N1CCC(=C2c3ccc(Cl)cc3CCc3cccnc32)CC1 [Loratadine] | 85.0 ± 1.8 | – | –
Cl.O=C(CCCCCN1CCN(c2ccccc2-c2ccccc2)CC1)NC1CCCc2ccccc21 (stereo not shown) [LP 12 hydrochloride hydrate] | 93.7 ± 9.5 | – | –
O=C(c1ccc2c(c1)OCCO2)N1CCCCC1 [CX 546] | 95.5 ± 26.6 | – | –
CCCCC#Cc1nc(NC)c2ncn([C@@H]3O[C@H](CO)[C@@H](O)[C@H]3O)c2n1 [HEMADO, reference compound] | 40.1 ± 10.4 | – | –

SMILES | % 25 nM CA200645 binding [%] | % Total CA200645 binding [%] | hit in LOPAC primary screen (inhibited the binding of CA200645 by >40%)
Nc1nc2ccc(Cl)cc2n2c(-c3ccccc3)nnc12 [CP-66713] | 93.9 ± 10.2 | – | –
Br.CCCN1CCC2c3cc(O)ccc3CCC21 (racemic) [cis(+/-)-8-OH-PBZI hydrobromide] | 98.1 ± 5.1 | – | –
CSc1nc(N)c2ncn([C@@H]3O[C@H](COP(=O)([O-])OP(=O)([O-])[O-])[C@@H](O)[C@H]3O)c2n1.O.[Na+].[Na+].[Na+] | 100.3 ± 5.3 | – | –
Cl.Nc1cc(Cl)c(N=C2NCCN2)c(Cl)c1 [p-Aminoclonidine hydrochloride] | 89.0 ± 23.3 | – | –
O=C(O)/C(=C/c1c(C(=O)O)[nH]c2cc(Cl)cc(Cl)c12)c1ccccc1 [MDL 105,519] | 101.6 ± 19.9 | – | –
O=C1CC2(CCCC2)CC(=O)N1CCCCN1CCN(c2ncccn2)CC1 [Buspirone hydrochloride] | 102.9 ± 6.0 | – | –
Br.CCCN(CCC)C1CCc2ccc(O)cc2C1 (racemic) [(±)-7-Hydroxy-DPAT hydrobromide] | 98.0 ± 1.6 | – | –
CNCCc1c[nH]c2ccc(O)cc12.O=C(O)C(=O)O | 111.6 ± 33.8 | – | –
CSc1ccc(C(=O)c2[nH]c(=O)[nH]c2C)cc1 [Enoximone] | 102.3 ± 5.2 | – | –
C[N+]1(CCCCC[N+]2(C)CCCC2)CCCC1.O=C([O-])C(O)C(O)C(=O)O.O=C([O-])C(O)C(O)C(=O)O [Pentolinium di[L(+)-tartrate]] | 106.3 ± 2.7 | – | –
N.N.N.Nc1ncnc2c1ncn2C1OC(COP(=O)(O)OP(=O)(O)OP(=O)(O)OP(=O)(O)OC[C@H]2O[C@@H](n3cnc4c(N)ncnc43)C(O)C2O)[C@@H](O)C1O (stereo in doubt) | 101.2 ± 10.2 | – | –
CCCCCCCCCC(=O)NC(CN1CCOCC1)[C@H](O)c1ccccc1.Cl (mixture of isomers) | 98.6 ± 11.0 | – | –
O=NN(CCCl)C(=O)NCCCl [Carmustine] | 102.2 ± 1.0 | – | –
Cc1ccc([N+](=O)[O-])cc1S(=O)(=O)N(C)C [BRL 50481] | 82.8 ± 17.4 | – | –
Clc1ccc(N2CCN(Cc3cc4ccccn4n3)CC2)cc1 [FAUC 213] | 76.8 ± 3.4 | – | –
C=C(C)[C@H]1Cc2c(ccc3c2O[C@@H]2COc4cc(OC)c(OC)cc4[C@@H]2C3=O)O1 [Rotenone] | 92.4 ± 12.1 | – | –
O=C1CCc2cc(OCCCCc3nnnn3C3CCCCC3)ccc2N1 [Cilostazol] | 105.8 ± 41.7 | – | –
CC[C@@]1(O)C(=O)OCc2c1cc1n(c2=O)Cc2cc3ccccc3nc2-1 [(S)-(+)-Camptothecin] | 99.7 ± 12.1 | – | –
Cc1ncc(CNC(=O)N(CCCl)N=O)c(N)n1 [Nimustine hydrochloride] | 95.2 ± 13.6 | – | –
O=c1ccc2ccc(O)c(O)c2o1 [Daphnetin] | 102.0 ± 13.1 | – | –

Same assay, conditions: % of 25 nM CA200645 binding in the presence of 10 μM compound, LOPAC full screen, A3AR CHO cells

SMILES | % Total CA200645 binding [%]
CCCCC#Cc1nc(NC)c2ncn([C@@H]3O[C@H](CO)[C@@H](O)[C@H]3O)c2n1 [HEMADO, reference compound] | 40.1 ± 10.5

Same assay, conditions: % of control wells (1% DMSO and 25 nM CA200645); compounds at 10 µM; whole live cells expressing the A3AR; mean ± SD, three experiments in duplicate

SMILES | % 25 nM CA200645 binding [%]
N#CC(C#N)=Cc1ccc(O)c(O)c1 [Tyrphostin 23] | 84.9 ± 6.4

Same assay, conditions: compounds tested at 10 µM; % of control wells (1% DMSO and 25 nM CA200645); whole live cells expressing the A3AR; mean ± SD, three experiments in duplicate

SMILES | % 25 nM CA200645 binding [%]
N[C@H](CCCP(=O)(O)O)C(=O)O [D(-)-2-Amino-5-phosphonopentanoic acid] | 109.4 ± 11.9
N#CC(C#N)=C(N)/C(C#N)=C/c1cc(O)c(O)c(O)c1 [Tyrphostin 51] | 94.9 ± 2.9
c1ccc2c(c1)OCC(C1=NCCN1)O2 (stereo not shown) [Idazoxan hydrochloride] | 112.7 ± 7.0

Reference: article PMC5733478, “A Non-imaging High Throughput Approach to Chemical Library Screening at the Unmodified Adenosine-A3 Receptor in Living Cells” (Frontiers in Pharmacology, 2017)
